Peptide text beside a SMILES is read from it. * marks the point of attachment. X64 = O=C1C=CC(=O)N1c1cccc(CCCCCCCCCC(=O)*)c1; X46 = O=C1C=CC(=O)N1c1cccc(CCCCC(=O)*)c1
Columns and labels:
[1] = Half-lives and pharmacokinetic parameters of polypeptides vs HM-1; settings: in vivo; for half-life: T1/2β (half-life)
HUVECs = assay: Transwell migration inhibition on HUVECs; type: cell-based, human; settings: HUVEC migration vs blank control
splenic lymphocytes = assay: Proliferation of splenic lymphocytes in mice (ConA, MTT); type: cell-based; settings: ConA-stimulated mouse splenic lymphocytes, 48 h
Protocol: Spleens of mice were taken out under aseptic conditions, washed with blank 1640 culture medium 3 times, ground with a 5 mL syringe core, filtered with a 200-mesh sieve, made into a single cell suspension. The suspension was centrifuged (1000 rpm×5 min), and supernatant was removed. Red blood cells were lysed by Tris-NH4Cl, and placed in ice water bath for 4 min and centrifuged (1000 rpm×5 min). The supernatant was removed, and the cells were washed twice with sterile PBS. Finally, RPMI 1640 culture solution (5 mL) containing 10% calf serum was added to suspend the cells. The cells were counted and the cell concentration was adjusted to 5×10^6 cells/mL, and the cells were cultured in a 96-well culture plate.
Blank control group, concanavalin A (ConA) group and dexamethasone (Dex) group were set in the experiment, and polypeptide X1-X90 groups were set as test groups. After 100 μL of splenic lymphocytes suspension per well was added into each group, 100 μL of blank 1640 culture solution was added into the blank control group, ConA was added into the ConA group, Dex was added into the Dex group, and ConA was added into the test groups on the basis of adding different concentrations of polypeptides X1-X90. The cells were static cultured at 37° C. in a cell incubator for 48 h. After the cultivation was completed, 20 μL of MTT was added to each well, and the cultivation was continued for 4 h. Finally, all the solutions in each well were discarded. 100 μL DMSO was added to each well and shaken, and the OD value at 570 nm was detected with a microplate reader. Five parallel experiments were set in each well.

[2] = system: collagen-induced arthritis; assay: Mouse collagen-induced arthritis (CIA) animal model; type: in vivo; settings: DBA/1 mice CIA model, dose 4.0 mg/kg, subcutaneous from day 30, n=10; for Clinical score: highest score 16
[3] = system: carrageenan-induced toe swelling; assay: Carrageenan-induced toe swelling in rats; type: in vivo; settings: SD rats; for Swelling degree 1 h: 1 h after carrageenan; for Swelling degree 3 h: 3 h after carrageenan; for Swelling degree 5 h: 5 h after carrageenan; for Swelling degree 7 h: 7 h after carrageenan
Protocol: The rats were injected once a day, and the model group was given the same volume of normal saline for 3 d and fed normally. […] The foot swelling degree was calculated according to the following formula: foot swelling degree (mL)=foot volume after inflammation-foot volume before inflammation. The number of milliliters of overflow liquid was recorded (method: a ballpoint pen is used to circle the protruding point of the right joint as a measurement mark, and the right hind feet of each rat are sequentially placed into the volume measurer, so that the hind limbs are exposed outside the barrel, and the immersion depth is at the coincidence of the circle and the liquid level. After the foot enters the liquid, the liquid level rises, and the volume of overflow liquid is the volume of the right hind foot of the rat, and the normal volume of the right hind foot of each rat is measured in sequence).

[4] = system: choroidal neovascularization; assay: Choroidal neovascularization in rats (laser photocoagulation, FFA); type: in vivo; settings: BN rats
Protocol: 6-8 weeks male BN rats were fully anesthetized by intraperitoneal injection of 846 compound anesthetic with a concentration of 0.5 mL/kg. Compound tropicamide eye drops were used once 5 min before laser photocoagulation to fully dilate the pupils of both eyes. The animals were fixed and subjected to krypton laser photocoagulation equidistantly around an optic disc with the aid of a −53.00D corneal contact lens at a distance of 2PD from the optic disc. A total of 8 photocoagulation spots were obtained. The laser wavelength was 647.1 nm, the power was 350 mW, and the diameter and time of the photocoagulation spots were 50 μm and 0.05 s respectively. Fundus photography was performed immediately after photocoagulation. FFA, histopathology and transmission electron microscopy were performed on the days 3, 7, 14, 21 and 28 after photocoagulation respectively.
Through fundus photography and FFA examination, it was confirmed that the fluorescein leakage of the photocoagulation spot reached its peak on day 21 after photocoagulation. At the same time, histopathological examination was carried out.
Rats with successful modeling were randomly grouped, with 5 rats in each group. The groups were marked as a negative control group and X1-X90 treatment groups respectively. The rats were injected with normal saline and X1-X90 (the doses of X1-X90 were each 0.05 μM) in the vitreous chamber once a day for 1 week. FFA examination was carried out 3 days, 7 days, 14 days and 28 days after administration.

[5] = day 3 after administration, total light spot number was 297, 0.05 μM in the vitreous chamber once a day for 1 week
[6] = day 7 after administration, total light spot number was 186, 0.05 μM in the vitreous chamber once a day for 1 week
[7] = day 14 after administration, total light spot number was 137, 0.05 μM in the vitreous chamber once a day for 1 week
[8] = day 28 after administration, total light spot number was 69, 0.05 μM in the vitreous chamber once a day for 1 week

Row | Structure (SMILES) | AUC(0-inf) [1] [ng·h/mL] | MRT inf [1] [h] | clearance [1] [mL/min/kg] | half-life [1] [h] | Inhibition rate (%) (HUVECs; dose 0.05 μM) | Inhibition rate (%) (HUVECs; dose 0.1 μM) | Inhibition rate (%) (HUVECs; dose 0.2 μM) | A570 nm/A630 nm (splenic lymphocytes; polypeptide dose 0.05 μM) | Inhibition rate (%) (splenic lymphocytes; polypeptide dose 0.05 μM) | A570 nm/A630 nm (splenic lymphocytes; polypeptide dose 0.1 μM) | Inhibition rate (%) (splenic lymphocytes; polypeptide dose 0.1 μM) | A570 nm/A630 nm (splenic lymphocytes; polypeptide dose 0.2 μM) | Inhibition rate (%) (splenic lymphocytes; polypeptide dose 0.2 μM) | Joint swelling degree (mm) [2] [mm] | Left and right paw swelling degree (mm) [2] [mm] | Clinical score [2] | Swelling degree 1 h ([3]; 2.0 mg/kg once a day for 3 d) [mg] | Swelling degree 3 h ([3]; 2.0 mg/kg once a day for 3 d) [mg] | Swelling degree 5 h ([3]; 2.0 mg/kg once a day for 3 d) [mg] | Swelling degree 7 h ([3]; 2.0 mg/kg once a day for 3 d) [mg] | other results
1 | C[C@H](NC(=O)CNC(=O)[C@H](CCCNC(=N)N)NC(=O)CCCCc1cccc(N2C(=O)C=CC2=O)c1)C(=O)N[C@@H](CC(=O)O)C(=O)N[C@@H](CCCNC(=N)N)C(=O)N[C@@H](C)C(=O)NCC(=O)NCC(=O)NCC(=O)NCC(=O)N[C@@H](CCCNC(=N)N)C(=O)NCC(=O)N[C@@H](CC(=O)O)C(=O)O [X28] (X46-RGADRAGGGGRGD-OH) | 25100 ± 7920 | 45 ± 13 | 0.663 | 31.19 ± 0.26 | 43.01 | 52.75 | 53.13 | 0.5765 ± 0.0594 | 14.64 | 0.5541 ± 0.0486 | 17.96 | 0.5087 ± 0.0793 | 24.68 | 0.72 ± 0.18 | 0.73 ± 0.18 | 8.83 ± 1.26 | 0.29 ± 0.13 | 0.35 ± 0.15 | 0.45 ± 0.17 | 0.36 ± 0.14 | Swelling degree 1 h ([3]; 4.0 mg/kg once a day for 3 d): 0.28 ± 0.15 mg; Swelling degree 3 h ([3]; 4.0 mg/kg once a day for 3 d): 0.34 ± 0.11 mg; Swelling degree 5 h ([3]; 4.0 mg/kg once a day for 3 d): 0.37 ± 0.17 mg; Swelling degree 7 h ([3]; 4.0 mg/kg once a day for 3 d): 0.35 ± 0.18 mg; CNV Incidence (%) [4, 5]: 50.17%; Leakage Light spot number [4, 5]: 149; CNV Incidence (%) [4, 6]: 46.77%; Leakage Light spot number [4, 6]: 87; CNV Incidence (%) [4, 7]: 45.26%; Leakage Light spot number [4, 7]: 62; CNV Incidence (%) [4, 8]: 40.58%; Leakage Light spot number [4, 8]: 28
2 | C[C@H](NC(=O)CNC(=O)[C@H](CCCNC(=N)N)NC(=O)CCCCCCCCCc1cccc(N2C(=O)C=CC2=O)c1)C(=O)N[C@@H](CC(=O)O)C(=O)N[C@@H](CCCNC(=N)N)C(=O)N[C@@H](C)C(=O)NCC(=O)NCC(=O)NCC(=O)NCC(=O)N[C@@H](CCCNC(=N)N)C(=O)NCC(=O)N[C@@H](CC(=O)O)C(=O)O [X33] (X64-RGADRAGGGGRGD-OH) | 34000 ± 7620 | 60.8 ± 12 | 0.49 | 42.15 ± 0.26 | 42.63 | 47.45 | 54.20 | 0.5669 ± 0.1137 | 16.06 | 0.5297 ± 0.0479 | 21.57 | 0.4492 ± 0.1069 | 33.49 | 0.82 ± 0.11 | 0.74 ± 0.17 | 9.08 ± 1.25 | 0.22 ± 0.13 | 0.37 ± 0.11 | 0.42 ± 0.17 | 0.35 ± 0.13 | Swelling degree 1 h ([3]; 4.0 mg/kg once a day for 3 d): 0.25 ± 0.14 mg; Swelling degree 3 h ([3]; 4.0 mg/kg once a day for 3 d): 0.31 ± 0.13 mg; Swelling degree 5 h ([3]; 4.0 mg/kg once a day for 3 d): 0.44 ± 0.19 mg; Swelling degree 7 h ([3]; 4.0 mg/kg once a day for 3 d): 0.33 ± 0.18 mg; CNV Incidence (%) [4, 5]: 54.21%; Leakage Light spot number [4, 5]: 161; CNV Incidence (%) [4, 6]: 46.24%; Leakage Light spot number [4, 6]: 86; CNV Incidence (%) [4, 7]: 45.26%; Leakage Light spot number [4, 7]: 62; CNV Incidence (%) [4, 8]: 37.68%; Leakage Light spot number [4, 8]: 26

From patent publication US20200270309A1, “MALEIMIDE GROUP-MODIFIED ANGIOGENESIS INHIBITOR HM-1 AND USE THEREOF” (NANJING ANJI BIOLOGICAL TECHNOLOGY CO., LTD, priority 2017, published 2020)
